The record followed here is ChEMBL document CHEMBL3351246, “Discovery of triazines as selective PDE4B versus PDE4D inhibitors” (Bioorg Med Chem Lett, 2014).

By IC50 is commonly meant the midpoint of a concentration-inhibition curve.

Assay [1] deals with T1, 3',5'-cyclic-AMP phosphodiesterase 4B (Homo sapiens, UniProt Q07343). Kind of assay: Inhibition of human PDE4B.
The species entered for the next assay is Homo sapiens. In words: Selectivity index, ratio of IC50 for human PDE4D to IC50 for human PDE4B.
The target in assay [2] is T2, 3',5'-cyclic-AMP phosphodiesterase 4D (Homo sapiens, UniProt Q08499). Kind of assay: Inhibition of human PDE4D.
T2 sequence (Q08499 whole entry): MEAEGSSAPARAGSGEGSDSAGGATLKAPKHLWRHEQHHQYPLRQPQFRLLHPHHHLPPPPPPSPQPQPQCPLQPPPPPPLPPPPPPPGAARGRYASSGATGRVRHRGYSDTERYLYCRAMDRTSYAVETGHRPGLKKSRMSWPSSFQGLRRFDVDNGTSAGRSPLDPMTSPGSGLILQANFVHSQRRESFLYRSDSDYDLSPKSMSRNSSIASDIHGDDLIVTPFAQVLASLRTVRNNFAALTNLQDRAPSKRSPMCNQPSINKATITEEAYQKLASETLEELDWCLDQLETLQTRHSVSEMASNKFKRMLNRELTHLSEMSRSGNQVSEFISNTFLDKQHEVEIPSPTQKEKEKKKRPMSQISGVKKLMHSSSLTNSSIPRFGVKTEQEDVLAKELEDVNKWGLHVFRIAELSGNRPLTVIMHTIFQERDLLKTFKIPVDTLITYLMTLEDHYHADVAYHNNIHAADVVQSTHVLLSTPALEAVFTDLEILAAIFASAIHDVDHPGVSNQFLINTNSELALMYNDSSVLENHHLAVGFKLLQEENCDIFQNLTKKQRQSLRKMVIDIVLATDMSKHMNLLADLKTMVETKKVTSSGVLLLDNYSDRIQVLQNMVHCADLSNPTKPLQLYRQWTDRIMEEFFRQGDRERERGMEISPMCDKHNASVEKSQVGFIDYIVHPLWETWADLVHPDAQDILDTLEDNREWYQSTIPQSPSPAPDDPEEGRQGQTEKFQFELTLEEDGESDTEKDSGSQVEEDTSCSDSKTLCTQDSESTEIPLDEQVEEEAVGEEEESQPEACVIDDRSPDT
The target in assay [3] is T2, 3',5'-cyclic-AMP phosphodiesterase 4D. Kind of assay: Inhibition of human PDE4D7.
Assay [4] concerns the target T1, 3',5'-cyclic-AMP phosphodiesterase 4B. In words: Inhibition of human PDE4B1.

T1 sequence (Q07343 whole entry): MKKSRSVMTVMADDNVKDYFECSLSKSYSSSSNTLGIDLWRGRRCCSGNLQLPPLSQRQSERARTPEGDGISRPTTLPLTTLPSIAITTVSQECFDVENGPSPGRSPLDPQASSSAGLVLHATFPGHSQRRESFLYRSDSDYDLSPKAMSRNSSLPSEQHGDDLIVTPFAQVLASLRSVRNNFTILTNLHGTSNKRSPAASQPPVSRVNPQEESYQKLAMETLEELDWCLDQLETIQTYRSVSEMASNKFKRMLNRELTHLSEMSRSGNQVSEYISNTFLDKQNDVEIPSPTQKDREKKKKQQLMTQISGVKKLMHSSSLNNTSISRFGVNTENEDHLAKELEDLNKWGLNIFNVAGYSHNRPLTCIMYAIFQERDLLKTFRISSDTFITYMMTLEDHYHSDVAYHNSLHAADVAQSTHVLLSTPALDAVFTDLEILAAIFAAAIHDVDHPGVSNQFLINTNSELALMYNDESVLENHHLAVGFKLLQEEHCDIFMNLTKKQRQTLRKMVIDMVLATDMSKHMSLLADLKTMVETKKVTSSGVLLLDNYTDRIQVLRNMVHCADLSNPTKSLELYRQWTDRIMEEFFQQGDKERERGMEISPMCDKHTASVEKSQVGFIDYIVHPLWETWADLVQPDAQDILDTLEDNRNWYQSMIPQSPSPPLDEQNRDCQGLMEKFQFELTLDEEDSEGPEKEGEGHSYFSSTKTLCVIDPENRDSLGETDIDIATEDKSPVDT

Take `O=C(O)c1ccc(Nc2nc(-c3cccc(Cl)c3)nc(C3CC3)n2)cc1`: the figures for the IC50 in assay [1] (read-out: IC50) and in assay [2] (read-out: IC50) were 46 nM and 20 nM, respectively. Also, in the assay listed under Homo sapiens, the Ratio IC50 is 0.4.
With `O=C(O)Cc1ccc(Nc2nc(-c3cccc(Cl)c3)nc(C3CC3)n2)cc1`, the IC50 in assay [1] (read-out: IC50) came to 237 nM; in assay [2] (read-out: IC50) it was 1180 nM. Moreover, in the assay filed under Homo sapiens, the Ratio IC50 was determined as 5.
For `CCc1nc(Nc2ccc(C(C)C(=O)O)cc2)nc(-c2cccc(Cl)c2)n1` (stereo not given), the IC50 in assay [1] (read-out: IC50) was 1090 nM; in assay [2] (read-out: IC50), 96 nM. For the same compound, the Ratio IC50 in the assay filed under Homo sapiens worked out at 0.09.
The matching figures for `CCc1nc(Nc2ccc(CC(=O)O)cc2)nc(-c2ccc(F)cc2)n1`: 1460 nM, 727 nM and 0.5.
`CCc1nc(Nc2ccc(NS(N)(=O)=O)cc2)nc(-c2cccc(Cl)c2)n1`: the IC50 in assay [1] (read-out: IC50) amounted to 402 nM; in assay [2] (read-out: IC50), 160 nM. Further, the Ratio IC50 in the assay listed under Homo sapiens stood at 0.4.
On to `O=C(O)Cc1ccc(Oc2nc(-c3cccc(Cl)c3)nc(C3CC3)n2)cc1`, for which the IC50 in assay [1] (read-out: IC50) came to 1860 nM; in assay [2] (read-out: IC50), 2270 nM. For the same compound, the Ratio IC50 in the assay listed under Homo sapiens is 1.2.
In the same order, the values of `CC(C)c1nc(Nc2ccc(C(=O)O)cc2)nc(-c2ccc(Cl)s2)n1` are 220 nM, 219 nM and 1.
For `O=C(O)Cc1ccc(Nc2nc(-c3ccc(Cl)s3)nc(C3CC3)n2)cc1`, the values for the IC50 in assay [1] (read-out: IC50) and in assay [2] (read-out: IC50) were 251 nM and 1490 nM, respectively. Further, in the assay filed under Homo sapiens, the Ratio IC50 was found to be 5.9.
In the same order, the values of `O=C(O)Cc1ccc(CNc2nc(-c3cccc(Cl)c3)nc(C3CC3)n2)cc1` are 845 nM, 726 nM and 0.86.
Regarding `CCc1nc(Nc2ccc(CC(=O)O)cc2)nc(-c2ccc(Cl)s2)n1`, the IC50 amounted to 383 nM in assay [1] (read-out: IC50) and 865 nM in assay [2] (read-out: IC50). Also, in the assay filed under Homo sapiens, the Ratio IC50 came out at 2.3.
Consider `CCc1c(C)nc(-c2ccc(Cl)s2)nc1Nc1ccc(CC(=O)O)cc1`, for which the IC50 is 2000 nM in assay [3] and 0.055 µM in assay [4].
Take `O=C(O)Cc1ccc(Nc2nc(-c3cccc(F)c3)nc(C3CC3)n2)cc1`: the IC50 was 1440 nM in assay [1] (read-out: IC50) and 2110 nM in assay [2] (read-out: IC50). Further, the Ratio IC50 in the assay filed under Homo sapiens was 1.5.
On to `Cc1nc(Nc2ccc(CC(=O)O)cc2)nc(-c2ccco2)n1`, for which the IC50 in assay [1] (read-out: IC50) turned out to be 18800 nM; in assay [2] (read-out: IC50) it was 22300 nM. Also, in the assay filed under Homo sapiens, the Ratio IC50 came out at 1.2.
Take `Cc1nc(Nc2ccc(CC(=O)O)cc2)nc(-c2ccc(Cl)s2)n1`: the IC50 in assay [1] (read-out: IC50) amounted to 1290 nM.
Regarding `CCc1nc(Nc2ccc(-c3nn[nH]n3)cc2)nc(-c2cccc(Cl)c2)n1`, the IC50 was 126 nM in assay [1] (read-out: IC50) and 132 nM in assay [2] (read-out: IC50).
Take `CCc1nc(Nc2ccc(C(=O)O)cc2)nc(-c2cccc(Cl)c2)n1`: the IC50 in assay [1] (read-out: IC50) is 241 nM; in assay [2] (read-out: IC50), 213 nM. Also, in the assay filed under Homo sapiens, the Ratio IC50 stood at 0.9.
With `CC(C)c1nc(Nc2ccc(CC(=O)O)cc2)nc(-c2ccc(Cl)s2)n1`, the IC50 was found to be 1940 nM in assay [1] (read-out: IC50) and 3580 nM in assay [2] (read-out: IC50). Besides, in the assay filed under Homo sapiens, the Ratio IC50 was found to be 1.8.
On to `CC(C)c1nc(Nc2ccc(F)cc2)nc(-c2ccc(Cl)s2)n1`, for which the half-maximal inhibitory concentration (IC50) in assay [1] (read-out: IC50) was determined as 8820 nM; in assay [2] (read-out: IC50) it was 886 nM.
`O=C1NCCN1c1ccc(Nc2nc(-c3cccc(Cl)c3)nc(C3CC3)n2)cc1`: the IC50 result in assay [1] and in assay [2] was “Not Active” each time.
As for `Cc1nc(Nc2ccc(C(=O)O)cc2)nc(-c2ccc(Cl)s2)n1`, the IC50 in assay [1] (read-out: IC50) was 4050 nM.
For `CCCc1nc(Nc2ccc(CC(=O)O)cc2)nc(-c2ccc(Cl)s2)n1`, the IC50 in assay [1] (read-out: IC50) came to 2450 nM.
With `O=C(O)Cc1ccc(CNc2nc(-c3ccc(Cl)cc3)nc(C3CC3)n2)cc1`, the IC50 in assay [1] (read-out: IC50) amounted to 2280 nM; in assay [2] (read-out: IC50), 859 nM. Moreover, the Ratio IC50 in the assay listed under Homo sapiens was 0.38.
Turning to `CCc1nc(Nc2ccc(C(=O)O)cc2)nc(-c2ccc(Cl)s2)n1`, the IC50 is 261 nM in assay [1] (read-out: IC50) and 251 nM in assay [2] (read-out: IC50). In addition, the Ratio IC50 in the assay listed under Homo sapiens was 1.
On to `CCc1nc(Nc2ccc(F)cc2)nc(-c2ccc(Cl)s2)n1`, for which the figures for the IC50 in assay [1] (read-out: IC50) and in assay [2] (read-out: IC50) were 1390 nM and 207 nM, respectively. The Ratio IC50 in the assay listed under Homo sapiens came out at 0.15.
On to `O=C(O)Cc1ccc(Nc2nc(-c3ccc(Cl)cc3)nc(C3CC3)n2)cc1`, for which the figures for the half-inhibitory concentration (IC50) in assay [1] (read-out: IC50) and in assay [2] (read-out: IC50) were 3770 nM and 5610 nM, respectively. Moreover, the Ratio IC50 in the assay listed under Homo sapiens stood at 1.5.
On to `CCc1nc(Nc2ccc(C#N)cc2)nc(-c2cccc(Cl)c2)n1`, for which the IC50 in assay [1] (read-out: IC50) is 12 nM; in assay [2] (read-out: IC50), 13 nM. Also, the Ratio IC50 in the assay listed under Homo sapiens was found to be 1.1.
For the compound `O=C(O)c1ccc(Nc2nc(-c3ccc(Cl)cc3)nc(C3CC3)n2)cc1`, the IC50 stood at 135 nM in assay [1] (read-out: IC50) and 268 nM in assay [2] (read-out: IC50). In the assay listed under Homo sapiens, the Ratio IC50 worked out at 2.
Regarding `CCc1nc(Nc2ccc(C(C)(C)C(=O)O)cc2)nc(-c2cccc(Cl)c2)n1`, the IC50 is 1570 nM in assay [1] (read-out: IC50) and 600 nM in assay [2] (read-out: IC50). Further, the Ratio IC50 in the assay listed under Homo sapiens amounted to 0.4.
For the compound `O=C1CCC(NC2=NC(C3CC3)NC(c3cccc(Cl)c3)=N2)CN1` (stereo not given), the IC50 was determined as 135 nM in assay [1] (read-out: IC50) and 268 nM in assay [2] (read-out: IC50). The Ratio IC50 in the assay listed under Homo sapiens amounted to 2.
On to `CCc1nc(Nc2ccc(CC(=O)O)cc2)nc(-c2ccoc2)n1`, for which the IC50 in assay [1] (read-out: IC50) came out at 2780 nM.
For the compound `CCc1nc(Nc2ccc(CC#N)cc2)nc(-c2cccc(Cl)c2)n1`, the IC50 in assay [1] (read-out: IC50) came to 165 nM; in assay [2] (read-out: IC50), 7 nM. Further, the Ratio IC50 in the assay filed under Homo sapiens worked out at 0.04.
As for `CCc1nc(Nc2ccc(-c3nnn[nH]3)cc2)nc(-c2cccc(Cl)c2)n1`, the Ratio IC50 in the assay listed under Homo sapiens worked out at 1.
Regarding `CCc1nc(Nc2ccc(Cc3nnn[nH]3)cc2)nc(-c2cccc(Cl)c2)n1`, the IC50 turned out to be 69 nM in assay [1] (read-out: IC50) and 63 nM in assay [2] (read-out: IC50). The Ratio IC50 in the assay listed under Homo sapiens is 0.9.
The matching figures for `CCc1nc(Nc2ccc(CC(=O)O)cc2)nc(-c2cccc(Cl)c2)n1`: 781 nM, 681 nM and 0.9.
For the compound `CCOc1nc(Nc2ccc(OC)cc2)nc(OCC)n1`, the IC50 in assay [3] is 2300 nM; in assay [4], 6.7 µM.
